Patent publication US20030102246A1, “Method for improving the stability of stored and/or used light-sensitive therapeutic systems or components thereof” (LTS Lohmann Therapie-Systeme AG, priority 1999, published 2003)

Legend:
[1] = cited from earlier work
[2] = Light stability of lacidipine solution in differently coloured polypropylene vessels exposed to daylight; type: physicochemical; conditions: daylight 6 to 8 hours
Method: As a representative of the very light-sensitive 1,4-dihydropyridine derivatives, lacidipine is used. By way of the example of lacidipine it is possible to show the influence the absorption spectrum of a polymer, for instance, one based on polypropylene, has on the stability of the 1,4-dihydropyridine derivative.
To carry out the experiment, the lacidipine was dissolved in a solvent. Since dissolved lacidipine is very sensitive to electromagnetic-radiation, it was possible to clearly determine the influence of the polymers examined. The lacidipine solution was filled in differently coloured vessels of polypropylene and exposed to daylight for a defined period of time. The vessels in this context served as models for a coloured film. After the vessels had been exposed to a certain radiation (for a time of 6 to 8 hours), the lacidipine content of the samples was determined. On the basis of the known initial concentration and the detected active substance amounts it was possible to make a statement on the protective action of the polymers used.
The absorption spectrum of lacidipine contains three maxima [238.4 nm; 282.8 nm; 367.4 nm]. These wavelength regions determine the light-sensitivity of the active substance. […] It can thus be concluded that to ensure maximum stability in the present case brown or aluminized polymers should be used.

Row | SMILES | rate of degradation of the active substance ([1]; with a yellow colourant having its absorption maximum in the range of 400 nm) | stabilisation against light ([1]; with light-stability or screening agents absorbing UV-A or UV-B rays) | Amount of active substance after irradiation ([2]; polymer aluminized, lichtundurchlässig) | Amount of active substance after irradiation ([2]; polymer blue, clear, absorption range <325 nm, 500 nm-700 nm) | Amount of active substance after irradiation ([2]; polymer brown, clear, absorption range <500 nm) | Amount of active substance after irradiation ([2]; polymer green, clear, absorption range <325 nm, >800 nm) | Amount of active substance after irradiation ([2]; polymer orange, klar, absorption range 550 nm-750 nm) | Amount of active substance after irradiation ([2]; polymer transparent, clear, absorption range <300 nm) | Amount of active substance after irradiation ([2]; polymer transparent, cloudy, absorption range <300 nm) | Amount of active substance after irradiation ([2]; polymer yellow, clear, absorption range <350 nm, >700 nm)
1 | CC1=C(/C=C/C(C)=C/C=C/C(C)=C/C(=O)O)C(C)(C)CCC1 [vitamine A acid] | substantially reduced | did not yield the desired results |  |  |  |  |  |  |  | 
2 | CCOC(=O)C1=C(C)NC(C)=C(C(=O)OCC)C1c1ccccc1/C=C/C(=O)OC(C)(C)C [lacidipine] |  |  | 99.36 % of initial amount | 23.46 % of initial amount | 98.93 % of initial amount | 12.40 % of initial amount | 15.65 % of initial amount | 14.79 % of initial amount | 21.05 % of initial amount | 29.32 % of initial amount
